Results published in patent publication US20210188817A1, “OPHTHALMIC COMPOSITIONS AND METHODS FOR THE TREATMENT OF EYE DISORDERS AND SKIN DISEASES” (Cellix Bio Private Limited, priority 2018, published 2021).

Tests used:
[1] = Protocol: SINGLE DOSE OCULAR PHARMACOKINETIC STUDY OF CLX-162 FORMULATION IN MALE NEW ZEALAND WHITE RABBITS: The purpose of this study was to determine the ocular pharmacokinetics of CLX-162, Brimonidine R-(+)-lipoate when administered to male New Zealand white rabbits by topical ocular route.
Aqueous humor samples were collected at pre-determined time points (0.25, 0.5, 1, 2, 4, 8 and 12 h from both eyes) and stored at −70° C. until analysis. Brimonidine was quantified in aqueous humor samples of New Zealand White rabbits, using a specific sensitive LC-MS/MS fit for purpose analytical method.
Brimonidine Pharmacokinetic parameters in aqueous humor of New Zealand white rabbits: […]

[2] = system: P. acnes, Staphylococcus aureus (S. aureus), and Staphylococcus epidermidis (S. epidermidis); details: twofold serial dilutions 0.24 to 500 μg ml-1, 72, 24, 48 hours for P. acnes, OD600
From the text: (§1) ANTI-MICROBIAL PROPERTIES OF CLX-SYN-G162B-C02 AND BRIMONIDINE MALEATE: To compare dose-response effects of CLX-SYN-G162B-C02 [brimonidine eicosapentaenoate salt], compound of present invention and brimonidine maleate [referred as brimonidine], comparative example on the growth of bacteria that are present in the skin flora, P. acnes, Staphylococcus aureus (S. aureus), and Staphylococcus epidermidis (S. epidermidis) were co-cultured with either agent at various concentrations for 72, 24, and 48 hours, respectively.
(§2) Bacterial growth was evaluated by measuring absorbance at 600 nm. The length of cultivation period was determined based on the growth speed of the bacteria. Both, CLX-SYN-G162B-C02 and brimonidine were tested at concentrations of twofold serial dilutions from 0.24 to 500 μg ml-1.

P. acnes = details: 72 hours co-culture; compared with S. aureus and S. epidermidis
From the text: as §1, §2

[3] = brimonidine in aqueous humor, 50 μL topical ocular, each eye, New Zealand white rabbits

| AUC profile ([1]; aqueous humor, ocular administration, comparator not stated) | AUCinf [1, 3] | AUClast [1, 3] | Cmax [1, 3] | MRTlast [1, 3] | T1/2 [1, 3] | Tmax [1, 3] | Time to maximal aqueous humor concentration ([1]; topical ocular) | Brimonidine levels detectable in the aqueous humor, time post dose ([1]; topical ocular, sampling 0.25-12 h) | Molecule | minimal inhibitory concentration (MIC) [2] | half maximal effective concentration on P. acnes growth (P. acnes) |
| --- | --- | --- | --- | --- | --- | --- | --- | --- | --- | --- | --- |
| better AUC profile | 1953 ng·h/mL | 1875 ng·h/mL | 1073 ng/mL | 75.6 min | 49.2 min | 30 min | ≤ 0.5 h | up to 4 h | Brc1c(NC2=NCCN2)ccc2nccnc12.O=C(O)CCCC[C@@H]1CCSS1 [CLX-162, Brimonidine R-(+)-lipoate] |  |  |
|  |  |  |  |  |  |  |  |  | Brimonidine Eicosapentaenoate [CLX-SYN-G162B-C02] | had shown to prevent bacterial growth | lowest among the bacteria tested |
|  |  |  |  |  |  |  |  |  | brimonidine maleate [reference compound] | no MIC |  |
